Experimental data from the NIST ThermoML archive (doi:10.1016/j.jct.2009.07.018).
± gives the expanded uncertainty stated by the source.

Assays:
[1] = Maximal bubble pressure
[2] = xn = mol fraction of the nth substance listed; conditions: Maximal bubble pressure

Work on `CCCCCCCCCC` [decane] yielded a surface tension liquid-gas ([1]; 293.15 K) of 23.83 ± 0.26 mN/m, a surface tension liquid-gas ([1]; 303.15 K) of 22.91 ± 0.26 mN/m and a surface tension liquid-gas ([1]; 313.15 K) of 21.91 ± 0.25 mN/m. For the same compound, the surface tension liquid-gas ([1]; 323.15 K) was 21.07 ± 0.25 mN/m, the surface tension liquid-gas ([1]; 333.15 K) was 20.15 ± 0.25 mN/m and the surface tension liquid-gas ([1]; 343.15 K) was 19.23 ± 0.24 mN/m.

In the case of `CCCCCCC` [heptane], the surface tension liquid-gas ([1]; 283.15 K) is reported as 21.11 ± 0.25 mN/m, the surface tension liquid-gas ([1]; 293.15 K) is reported as 20.12 ± 0.25 mN/m and the surface tension liquid-gas ([1]; 303.15 K) is reported as 19.13 ± 0.24 mN/m. For the same compound, the surface tension liquid-gas ([1]; 313.15 K) was 18.11 ± 0.24 mN/m and the surface tension liquid-gas ([1]; 323.15 K) was 17.15 ± 0.23 mN/m.

`CCCCC` [pentane] gave a surface tension liquid-gas ([1]; 293.15 K) of 15.94 ± 0.23 mN/m, a surface tension liquid-gas ([1]; 298.15 K) of 15.3 ± 0.22 mN/m and a surface tension liquid-gas ([1]; 305.15 K) of 14.36 ± 0.22 mN/m. It also gave a surface tension liquid-gas ([1]; 318.15 K) of 12.6 ± 0.21 mN/m and a surface tension liquid-gas ([1]; 323.15 K) of 11.95 ± 0.21 mN/m.

For `CCCCC` [pentane] + CCCCCCC, the surface tension liquid-gas ([2]; 293.15 K, x1 = 0.165) was 19.62 ± 0.24 mN/m, the surface tension liquid-gas ([2]; 293.15 K, x1 = 0.308) was 19.11 ± 0.24 mN/m and the surface tension liquid-gas ([2]; 293.15 K, x1 = 0.432) was 18.6 ± 0.24 mN/m. The surface tension liquid-gas ([2]; 293.15 K, x1 = 0.542) was 18.15 ± 0.24 mN/m, the surface tension liquid-gas ([2]; 293.15 K, x1 = 0.64) was 17.71 ± 0.23 mN/m and the surface tension liquid-gas ([2]; 293.15 K, x1 = 0.727) was 17.29 ± 0.23 mN/m. The surface tension liquid-gas ([2]; 293.15 K, x1 = 0.877) was 16.65 ± 0.23 mN/m, the surface tension liquid-gas ([2]; 293.15 K, x1 = 0.971) was 16.08 ± 0.23 mN/m and the surface tension liquid-gas ([2]; 298.15 K, x1 = 0.165) was 18.98 ± 0.24 mN/m. For the same compound, the surface tension liquid-gas ([2]; 298.15 K, x1 = 0.308) was 18.5 ± 0.24 mN/m, the surface tension liquid-gas ([2]; 298.15 K, x1 = 0.432) was 17.9 ± 0.24 mN/m and the surface tension liquid-gas ([2]; 298.15 K, x1 = 0.542) was 17.35 ± 0.23 mN/m. For the same compound, the surface tension liquid-gas ([2]; 298.15 K, x1 = 0.64) was 16.9 ± 0.23 mN/m, the surface tension liquid-gas ([2]; 298.15 K, x1 = 0.727) was 16.48 ± 0.23 mN/m and the surface tension liquid-gas ([2]; 298.15 K, x1 = 0.877) was 15.85 ± 0.23 mN/m. For the same compound, the surface tension liquid-gas ([2]; 298.15 K, x1 = 0.971) was 15.29 ± 0.22 mN/m, the surface tension liquid-gas ([2]; 305.15 K, x1 = 0.165) was 18.16 ± 0.24 mN/m and the surface tension liquid-gas ([2]; 305.15 K, x1 = 0.308) was 17.64 ± 0.23 mN/m. It also gave a surface tension liquid-gas ([2]; 305.15 K, x1 = 0.432) of 17.13 ± 0.23 mN/m, a surface tension liquid-gas ([2]; 305.15 K, x1 = 0.542) of 16.64 ± 0.23 mN/m and a surface tension liquid-gas ([2]; 305.15 K, x1 = 0.64) of 16.17 ± 0.23 mN/m. For the same compound, the surface tension liquid-gas ([2]; 305.15 K, x1 = 0.727) was 15.74 ± 0.23 mN/m, the surface tension liquid-gas ([2]; 305.15 K, x1 = 0.877) was 14.97 ± 0.22 mN/m and the surface tension liquid-gas ([2]; 305.15 K, x1 = 0.971) was 14.49 ± 0.22 mN/m. It also gave a surface tension liquid-gas ([2]; 318.15 K, x1 = 0.165) of 16.91 ± 0.23 mN/m, a surface tension liquid-gas ([2]; 318.15 K, x1 = 0.308) of 16.24 ± 0.23 mN/m and a surface tension liquid-gas ([2]; 318.15 K, x1 = 0.432) of 15.66 ± 0.23 mN/m. The surface tension liquid-gas ([2]; 318.15 K, x1 = 0.542) was 15.1 ± 0.22 mN/m, the surface tension liquid-gas ([2]; 318.15 K, x1 = 0.64) was 14.57 ± 0.22 mN/m and the surface tension liquid-gas ([2]; 318.15 K, x1 = 0.727) was 14.08 ± 0.22 mN/m. For the same compound, the surface tension liquid-gas ([2]; 318.15 K, x1 = 0.877) was 13.23 ± 0.22 mN/m, the surface tension liquid-gas ([2]; 318.15 K, x1 = 0.971) was 12.7 ± 0.21 mN/m and the surface tension liquid-gas ([2]; 323.15 K, x1 = 0.165) was 16.33 ± 0.23 mN/m. It also gave a surface tension liquid-gas ([2]; 323.15 K, x1 = 0.308) of 15.55 ± 0.23 mN/m, a surface tension liquid-gas ([2]; 323.15 K, x1 = 0.432) of 14.88 ± 0.22 mN/m and a surface tension liquid-gas ([2]; 323.15 K, x1 = 0.542) of 14.4 ± 0.22 mN/m. It also gave a surface tension liquid-gas ([2]; 323.15 K, x1 = 0.64) of 13.93 ± 0.22 mN/m, a surface tension liquid-gas ([2]; 323.15 K, x1 = 0.727) of 13.41 ± 0.22 mN/m and a surface tension liquid-gas ([2]; 323.15 K, x1 = 0.877) of 12.6 ± 0.21 mN/m. The surface tension liquid-gas ([2]; 323.15 K, x1 = 0.971) was 12.12 ± 0.21 mN/m.

With `O` [water] the surface tension liquid-gas ([1]; 293.15 K) was 72.84 ± 0.42 mN/m, the surface tension liquid-gas ([1]; 298.15 K) was 72.03 ± 0.42 mN/m and the surface tension liquid-gas ([1]; 303.15 K) was 71.24 ± 0.41 mN/m. For the same compound, the surface tension liquid-gas ([1]; 308.15 K) was 70.44 ± 0.41 mN/m, the surface tension liquid-gas ([1]; 313.15 K) was 69.61 ± 0.41 mN/m and the surface tension liquid-gas ([1]; 323.15 K) was 67.96 ± 0.4 mN/m.
